Reference: PubChem BioAssay AID1259411 (Chemical Carcinogenesis Research Information System (CCRIS), 2018)
Active and inactive are the calls of the source. How the calls were made is not given here.

Test system: rodent carcinogenicity bioassays, tumor incidence
Test: CCRIS carcinogenicity studies
Method in brief: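 NCI-built, expert-reviewed records of carcinogenicity and related test outcomes (mutagenicity, tumor promotion/inhibition) compiled from published and report sources, historical span 1985-2011, not updated.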

**Q.** For `CC(O)CCl` (configuration not stated), which carcinogen call (Species: MOUSE, Strain/Sex: B6C3F1/FEMALE, Route: ORAL, Dose: 0, 250, 500, 1000 PPM IN DRINKING WATER FOR DURATION OF STUDY (STUDY DURATION: 2 YR), Dose: 0, 250, 500, 1000 PPM IN DRINKING WATER FOR DURATION OF STUDY (STUDY DURATION: 2 YR)) is on record?
**A.** inactive; negative

**Q.** And the carcinogen call (Species: MOUSE, Strain/Sex: B6C3F1/MALE, Route: ORAL, Dose: 0, 250, 500, 1000 PPM IN DRINKING WATER FOR DURATION OF STUDY (STUDY DURATION: 2 YR), Dose: 0, 250, 500, 1000 PPM IN DRINKING WATER FOR DURATION OF STUDY (STUDY DURATION: 2 YR))?
**A.** inactive; negative

**Q.** And the carcinogen call (Species: RAT, Strain/Sex: F344/FEMALE, Route: ORAL, Dose: 10, 150, 325, 650 PPM IN DRINKING WATER FOR DURATION OF STUDY (STUDY DURATION: 2 YR), Dose: 10, 150, 325, 650 PPM IN DRINKING WATER FOR DURATION OF STUDY (STUDY DURATION: 2 YR))?
**A.** inactive; negative

**Q.** And the carcinogen call (Species: RAT, Strain/Sex: F344/MALE, Route: ORAL, Dose: 0, 150, 325, 650 PPM IN DRINKING WATER FOR DURATION OF STUDY (STUDY DURATION: 2 YR), Dose: 0, 150, 325, 650 PPM IN DRINKING WATER FOR DURATION OF STUDY (STUDY DURATION: 2 YR))?
**A.** inactive; negative

**Q.** How did the carcinogen call (Species: RAT, Strain/Sex: STRAIN-CD/MALE, Route: ORAL, Dose: 30, 300 MG/KG IN DIET FOR 2 YR, Tumor Site: Type of Lesion: LIVER: NEOPLASTIC NODULE, CARCINOMA, TESTES: INTERSTITIAL CELL TUMOR) turn out when `Cc1ccc(C)c(OCCCC(C)(C)C(=O)O)c1` was run?
**A.** active; positive

**Q.** How did the carcinogen call (Species: HAMSTER, Strain/Sex: SYRIAN/FEMALE, Route: GAVAGE, Dose: 0, 2.4 MG IN 0.2 ML OF WATER 1/WK FOR 41 WK FOR A TOTAL DOSE OF 98 MG (STUDY DURATION: 45 WK), Tumor Site: Type of Lesion: NASAL MUCOSA: CARCINOMA, ADENOMA) turn out when `CN(CC(O)CO)N=O` (configuration not stated) was run?
**A.** active; positive

**Q.** Which results are given for `O=c1ccc(=O)[nH][nH]1`?
**A.** carcinogen call (Species: MOUSE, Strain/Sex: ICR/HA SWISS/FEMALE, Route: SUBCUTANEOUS, Dose: 0, 0.5 MG IN 0.1 ML WATER ON D 1 AND 7 OF AGE THEN 0, 1 MG IN 0.2 ML ON D 14 AND 21 FOR A TOTAL DOSE OF 0, 3 MG (STUDY D, Dose: 0, 0.5 MG IN 0.1 ML WATER ON D 1 AND 7 OF AGE THEN 0, 1 MG IN 0.2 ML ON D 14 AND 21 FOR A TOTAL DOSE OF 0, 3 MG (STUDY D): inactive; negative; carcinogen call (Species: MOUSE, Strain/Sex: ICR/HA SWISS/FEMALE, Route: SUBCUTANEOUS, Dose: 0, 5 MG IN 0.1 ML TRICAPRYLIN SUSPENSION ON D 1 OF AGE THEN 0, 10 MG IN 0.1 ML ON D 7, 0, 20 MG IN 0.2 ML ON D 14 AND 21, Dose: 0, 5 MG IN 0.1 ML TRICAPRYLIN SUSPENSION ON D 1 OF AGE THEN 0, 10 MG IN 0.1 ML ON D 7, 0, 20 MG IN 0.2 ML ON D 14 AND 21): inactive; negative; carcinogen call (Species: MOUSE, Strain/Sex: ICR/HA SWISS/MALE, Route: SUBCUTANEOUS, Dose: 0, 5 MG IN 0.1 ML TRICAPRYLIN SUSPENSION ON D 1 OF AGE THEN 0, 10 MG IN 0.1 ML ON D 7, 0, 20 MG IN 0.2 ML ON D 14 AND 21, Dose: 0, 5 MG IN 0.1 ML TRICAPRYLIN SUSPENSION ON D 1 OF AGE THEN 0, 10 MG IN 0.1 ML ON D 7, 0, 20 MG IN 0.2 ML ON D 14 AND 21, Tumor Site: Type of Lesion: LIVER: HEPATOMA): active; positive

**Q.** What does the source list for `CC(C)C=O`?
**A.** carcinogen call (Species: MOUSE, Strain/Sex: B6C3F1/FEMALE, Route: INHALATION, Dose: 0, 500, 1000, 2000 PPM 6 HR/D 5 D/WK FOR 105 WK (STUDY DURATION: 105 WK), Dose: 0, 500, 1000, 2000 PPM 6 HR/D 5 D/WK FOR 105 WK (STUDY DURATION: 105 WK)): inactive; negative; carcinogen call (Species: MOUSE, Strain/Sex: B6C3F1/MALE, Route: INHALATION, Dose: 0, 500, 1000, 2000 PPM 6 HR/D 5 D/WK FOR 105 WK (STUDY DURATION: 105 WK), Dose: 0, 500, 1000, 2000 PPM 6 HR/D 5 D/WK FOR 105 WK (STUDY DURATION: 105 WK)): inactive; negative; carcinogen call (Species: RAT, Strain/Sex: F344/FEMALE, Route: INHALATION, Dose: 0, 500, 1000, 2000 PPM 6 HR/D 5 D/WK FOR 105 WK (STUDY DURATION: 105 WK), Dose: 0, 500, 1000, 2000 PPM 6 HR/D 5 D/WK FOR 105 WK (STUDY DURATION: 105 WK)): inactive; negative; carcinogen call (Species: RAT, Strain/Sex: F344/MALE, Route: INHALATION, Dose: 0, 500, 1000, 2000 PPM 6 HR/D 5 D/WK FOR 105 WK (STUDY DURATION: 105 WK), Dose: 0, 500, 1000, 2000 PPM 6 HR/D 5 D/WK FOR 105 WK (STUDY DURATION: 105 WK)): inactive; negative

**Q.** For `Cc1cc2c(c3ccc4ccccc4c13)CCC2=O`, which carcinogen call (Species: MOUSE, Strain/Sex: TO/MALE, FEMALE, Route: DERMAL, Dose: 0, 50 UG (10 µL OF A 0.5% W/V TOLUENE SOLUTION) 2/WK FOR 70 WK (STUDY DURATION: 70 WK), Tumor Site: Type of Lesion: SKIN: CARCINOMA) is on record?
**A.** active; positive

**Q.** Which carcinogen call (Species: MOUSE, Strain/Sex: SLC:DDY/FEMALE, Route: DERMAL, Dose: 0, 0.25, 1, 4% IN OLIVE OIL 2/WK FOR 79 WK (STUDY DURATION: 79 WK), Dose: 0, 0.25, 1, 4% IN OLIVE OIL 2/WK FOR 79 WK (STUDY DURATION: 79 WK)) does the source give for `O=C/C(Br)=C/c1ccccc1` here?
**A.** inactive; negative

**Q.** Which carcinogen call (Species: RAT, Strain/Sex: OSBORNE-MENDEL/FEMALE, Route: LUNG IMPLANT, Dose: 0, 0.2, 1.0, 5.0 MG IN BEESWAX/TRIOCTANOIN (STUDY DURATION: LIFETIME), Dose: 0, 0.2, 1.0, 5.0 MG IN BEESWAX/TRIOCTANOIN (STUDY DURATION: LIFETIME)) does the source give for `c1ccc2c(c1)c1cccc3ccc4cccc2c4c31` here?
**A.** inactive; negative

**Q.** Which carcinogen call (Species: RAT, Strain/Sex: F344/FEMALE, Route: ORAL, Dose: 0, 172 MG/L IN DRINKING WATER 5 D/WK FOR 50 WK, STUDY DURATION: 120-130 WK, Dose: 0, 172 MG/L IN DRINKING WATER 5 D/WK FOR 50 WK, STUDY DURATION: 120-130 WK, Tumor Site: Type of Lesion: FORESTOMACH: PAPILLOMA OR CARCINOMA) does the source give for `CC1CN(N=O)CC(C)N1C(=O)c1ccccc1` (configuration not stated) here?
**A.** active; positive

**Q.** With `Nc1ccc(Cl)c(N)c1` as the molecule, how does the carcinogen call (Species: MOUSE, Strain/Sex: B6C3F1/FEMALE, Route: ORAL, Dose: 0, 0.7, 1.4% OF DIET, TWA, Dose: 0, 0.7, 1.4% OF DIET, TWA, Tumor Site: Type of Lesion: LIVER: HEPATOCELLULAR ADENOMA OR HEPATOCELLULAR CARCINOMA) read?
**A.** active; positive

**Q.** What about the carcinogen call (Species: MOUSE, Strain/Sex: B6C3F1/MALE, Route: ORAL, Dose: 0, 0.7, 1.4% OF DIET, TWA, Dose: 0, 0.7, 1.4% OF DIET, TWA) of the same molecule?
**A.** inactive; negative

**Q.** And the carcinogen call (Species: RAT, Strain/Sex: F344/FEMALE, Route: ORAL, Dose: 0, 0.2, 0.4% OF DIET, Dose: 0, 0.2, 0.4% OF DIET)?
**A.** inactive; negative

**Q.** What about the carcinogen call (Species: RAT, Strain/Sex: F344/MALE, Route: ORAL, Dose: 0, 0.2, 0.4% OF DIET, Dose: 0, 0.2, 0.4% OF DIET, Tumor Site: Type of Lesion: ADRENAL GLAND: PHEOCHROMOCYTOMA) of the same molecule?
**A.** active; positive

**Q.** How did the carcinogen call (Species: MOUSE, Strain/Sex: B6C3F1/FEMALE, Route: ORAL, Dose: 0, 50, 250, 500 PPM IN DIET FOR 2 YR (STUDY DURATION: 2 YR), Dose: 0, 50, 250, 500 PPM IN DIET FOR 2 YR (STUDY DURATION: 2 YR), Tumor Site: Type of Lesion: LIVER: HEPATOCELLULAR ADENOMA) turn out when `COC(=O)C(c1ccccc1)C1CCCCN1` (configuration not stated) was run?
**A.** active; positive

**Q.** What about the carcinogen call (Species: MOUSE, Strain/Sex: B6C3F1/MALE, Route: ORAL, Dose: 0, 50, 250, 500 PPM IN DIET FOR 2 YR (STUDY DURATION: 2 YR), Dose: 0, 50, 250, 500 PPM IN DIET FOR 2 YR (STUDY DURATION: 2 YR), Tumor Site: Type of Lesion: LIVER: HEPATOCELLULAR ADENOMA, HEPATOBLASTOMA) of the same molecule?
**A.** active; positive

**Q.** What about the carcinogen call (Species: RAT, Strain/Sex: F344/FEMALE, Route: ORAL, Dose: 0, 100, 500, 1000 PPM IN DIET FOR 2 YR (STUDY DURATION: 2 YR), Dose: 0, 100, 500, 1000 PPM IN DIET FOR 2 YR (STUDY DURATION: 2 YR)) of the same molecule?
**A.** inactive; negative

**Q.** What about the carcinogen call (Species: RAT, Strain/Sex: F344/MALE, Route: ORAL, Dose: 0, 100, 500, 1000 PPM IN DIET FOR 2 YR (STUDY DURATION: 2 YR), Dose: 0, 100, 500, 1000 PPM IN DIET FOR 2 YR (STUDY DURATION: 2 YR)) of the same molecule?
**A.** inactive; negative

**Q.** How did the carcinogen call (Species: RAT, Route: INTRAPERITONEAL, Tumor Site: Type of Lesion: PERITONEAL CAVITY) turn out when `CO[C@@]12[C@H](COC(N)=O)C3=C(C(=O)C(C)=C(N)C3=O)N1C[C@@H]1N[C@@H]12` was run?
**A.** active; positive

**Q.** And the carcinogen call (Species: RAT, Route: INTRAVENOUS, Tumor Site: Type of Lesion: PERITONEAL CAVITY, MAMMARY GLAND, INTESTINES, Tumor Site: Type of Lesion: PERITONEAL CAVITY, MAMMARY GLAND, INTESTINES)?
**A.** active; positive
